Test results taken from patent publication US20140206681A1, “BTK INHIBITORS” (priority 2013, published 2014).

Key:
[1] = target: T1, BTK enzyme (recombinant full-length BTK, hBTK) (Homo sapiens, UniProt Q06187); test: BTK enzyme activity assay, LANCE TR-FRET; format: biochemical; details: 50 pM hBTK, 2 μM biotin-A5-peptide, 25 μM ATP; 60 min compound & enzyme incubation; read-out: IC50 BTK activity value
T1 construct: recombinant protein from baculovirus-transfected Sf9 cells: full-length BTK, 6HIS-tag cleaved; 6HIS (cleaved yes); made in house; host or cells: baculovirus-transfected Sf9 cells

HeLa cells = test: [3H]Adenosine uptake functional cellular assay; format: cell-based; details: Homo sapiens, HeLa, accumulation of [3H]adenosine into HeLa cells; compound range 10 μM to […]; read-out: Adenosine uptake inhibition IC50
In short: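 Inhibition of adenosine uptake was measured in HeLa cells (ATCC CCL-2) by following accumulation of tritiated adenosine. Cells were kept overnight at 37° C. with 5% (v/v) CO2, then switched to 40 μL HBSS plus 5% (v/v) FBS. 20 μL of 500 nM [3H]adenosine was added, and uptake was counted on a Topcount NXT reader.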

T1 sequence (Q06187 whole entry): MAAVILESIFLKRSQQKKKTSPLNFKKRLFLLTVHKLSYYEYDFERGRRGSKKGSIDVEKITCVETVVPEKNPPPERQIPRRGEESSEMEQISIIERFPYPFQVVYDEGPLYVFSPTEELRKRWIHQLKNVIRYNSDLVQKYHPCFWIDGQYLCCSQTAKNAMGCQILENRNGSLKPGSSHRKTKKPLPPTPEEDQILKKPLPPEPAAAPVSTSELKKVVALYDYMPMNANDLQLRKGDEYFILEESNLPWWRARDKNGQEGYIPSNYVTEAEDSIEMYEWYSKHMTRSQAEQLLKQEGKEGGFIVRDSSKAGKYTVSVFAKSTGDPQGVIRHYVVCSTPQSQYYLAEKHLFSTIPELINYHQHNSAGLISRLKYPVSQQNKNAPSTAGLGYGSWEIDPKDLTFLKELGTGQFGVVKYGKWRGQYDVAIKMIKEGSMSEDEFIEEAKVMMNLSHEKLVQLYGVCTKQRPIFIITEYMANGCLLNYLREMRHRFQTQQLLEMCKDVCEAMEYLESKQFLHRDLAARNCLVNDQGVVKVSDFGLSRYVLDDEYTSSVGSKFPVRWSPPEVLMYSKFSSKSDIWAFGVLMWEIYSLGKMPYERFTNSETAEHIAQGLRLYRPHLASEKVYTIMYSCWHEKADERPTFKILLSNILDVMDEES

Row | Compound | IC50 [1] [nM] | IC50 (HeLa cells) [nM]
1 | C=C[C@@H]1OC(=O)N2C[C@H](c3nc(-c4ccc(C(=O)Nc5cc(C(F)(F)F)ccn5)cc4)c4c(N)nccn34)CC[C@@H]12 [Example 109, 4-{8-amino-3-[(1S,6R,8aS)-1-ethenyl-3-oxohexahydro[1,3]oxazolo[3,4-a]pyridin-6-yl]imidazo[1,5-a]pyrazin-1-yl}-N-[4-(trifluoromethyl)pyridin-2-yl]benzamide] | 6.3 | 116
2 | C=C[C@H]1OC(=O)N2C[C@H](c3nc(-c4ccc(C(=O)Nc5cc(C(F)(F)F)ccn5)cc4)c4c(N)nccn34)CC[C@@H]12 [Example 110, 4-{8-amino-3-[(1R,6R,8aS)-1-ethenyl-3-oxohexahydro[1,3]oxazolo[3,4-a]pyridin-6-yl]imidazo[1,5-a]pyrazin-1-yl}-N-[4-(trifluoromethyl)pyridin-2-yl]benzamide] | 16.8 | 100
3 | CN1CC[C@H]2CC[C@@H](c3nc(-c4ccc(C(=O)Nc5cc(C(F)(F)F)ccn5)cc4)c4c(N)nccn34)CN2C1=O [Example 111, 4-{8-amino-3-[(4aR,7R)-2-methyl-1-oxooctahydro-1H-pyrido[1,2-c]pyrimidin-7-yl]imidazo[1,5-a]pyrazin-1-yl}-N-[4-(trifluoromethyl)pyridin-2-yl]benzamide] | 5.2 | 458
4 | CC(F)(F)c1cc(C(=O)Nc2cc(C(F)(F)F)ccn2)ccc1-c1nc([C@@H]2CC[C@H]3CCC(=O)N3C2)n2ccnc(N)c12 [Example 114, 4-{8-amino-3-[(6R,8aS)-3-oxooctahydroindolizin-6-yl]imidazo[1,5-a]pyrazin-1-yl}-3-(1,1-difluoroethyl)-N-[4-(trifluoromethyl)pyridin-2-yl]benzamide] | 831 | 587
5 | N#Cc1cnc(NC(=O)c2ccc(-c3nc([C@@H]4CC[C@H]5CCC(=O)N5C4)n4ccnc(N)c34)cc2)cc1C(F)(F)F [Example 117, 4-{8-amino-3-[(6R,8aS)-3-oxooctahydroindolizin-6-yl]imidazo[1,5-a]pyrazin-1-yl}-N-[5-cyano-4-(trifluoromethyl)pyridin-2-yl]benzamide] | 2.1 | 102
6 | Nc1nccn2c([C@@H]3CC[C@H]4CCC(=O)N4C3)nc(-c3ccc(C(=O)Nc4cc(C(F)(F)F)ccn4)nc3)c12 [Example 119, 5-{8-amino-3-[(6R,8aS)-3-oxooctahydroindolizin-6-yl]imidazo[1,5-a]pyrazin-1-yl}-N-[4-(trifluoromethyl)pyridin-2-yl]pyridine-2-carboxamide] | 3.3 | 451
7 | Cc1cc(C(F)(F)F)cc(NC(=O)c2ccc(-c3nc([C@@H]4CC[C@H]5CCC(=O)N5C4)n4ccnc(N)c34)cc2)n1 [Example 120, 4-{8-amino-3-[(6R,8aS)-3-oxooctahydroindolizin-6-yl]imidazo[1,5-a]pyrazin-1-yl}-N-[6-methyl-4-(trifluoromethyl)pyridin-2-yl]benzamide] | 4.8 | 117
8 | N#Cc1cc(C(=O)Nc2cc(C(F)(F)F)ccn2)ccc1-c1nc([C@@H]2CC[C@H]3CCC(=O)N3C2)n2ccnc(N)c12 [Example 123, 4-{8-amino-3-[(6R,8aS)-3-oxooctahydroindolizin-6-yl]imidazo[1,5-a]pyrazin-1-yl}-3-cyano-N-[4-(trifluoromethyl)pyridin-2-yl]benzamide] | 6.3 | 719
9 | NC(=O)c1cc(C(=O)Nc2cc(C(F)(F)F)ccn2)ccc1-c1nc([C@@H]2CC[C@H]3CCC(=O)N3C2)n2ccnc(N)c12 [Example 124, 4-{8-amino-3-[(6R,8aS)-3-oxooctahydroindolizin-6-yl]imidazo[1,5-a]pyrazin-1-yl}-N~1~-[4-(trifluoromethyl)pyridin-2-yl]benzene-1,3-dicarboxamide] | 347 | ≥ 10000
10 | CC(C)c1cc(C(F)(F)F)cc(NC(=O)c2ccc(-c3nc([C@@H]4CC[C@H]5CCC(=O)N5C4)n4ccnc(N)c34)cc2)n1 [Example 125, 4-{8-amino-3-[(6R,8aS)-3-oxooctahydroindolizin-6-yl]imidazo[1,5-a]pyrazin-1-yl}-N-[6-(1-methylethyl)-4-(trifluoromethyl)pyridin-2-yl]benzamide] | 278 | 645
11 | Nc1nccn2c([C@@H]3CC[C@H]4CCC(=O)N4C3)nc(-c3ccc(C(=O)Nc4cc(C(F)(F)F)ccn4)cc3C(=O)O)c12 [Example 127, 2-{8-amino-3-[(6R,8aS)-3-oxooctahydroindolizin-6-yl]imidazo[1,5-a]pyrazin-1-yl}-5-{[4-(trifluoromethyl)pyridin-2-yl]carbamoyl}benzoic acid] | 83.5 | 5160
12 | COc1cccc(NC(=O)c2ccc(-c3nc([C@@H]4CC[C@H]5CCC(=O)N5C4)n4ccnc(N)c34)cc2)n1 [Example 129, 4-{8-amino-3-[(6R,8aS)-3-oxooctahydroindolizin-6-yl]imidazo[1,5-a]pyrazin-1-yl}-N-(6-methoxypyridin-2-yl)benzamide] | 81.2 | 39.3
13 | COc1cc(C(=O)Nc2cc(C(F)(F)F)ccn2)c(F)cc1-c1nc([C@@H]2CC[C@H]3CCC(=O)N3C2)n2ccnc(N)c12 [Example 130, 4-{8-amino-3-[(6R,8aS)-3-oxooctahydroindolizin-6-yl]imidazo[1,5-a]pyrazin-1-yl}-2-fluoro-5-methoxy-N-[4-(trifluoromethyl)pyridin-2-yl]benzamide] | 2.5 | 728
14 | CCOc1cc(C(=O)Nc2cc(C(F)(F)F)n(C)n2)ccc1-c1nc([C@@H]2CC[C@H]3CCC(=O)N3C2)n2ccnc(N)c12 [Example 131, 4-{8-amino-3-[(6R,8aS)-3-oxooctahydroindolizin-6-yl]imidazo[1,5-a]pyrazin-1-yl}-3-ethoxy-N-[1-methyl-5-(trifluoromethyl)-1H-pyrazol-3-yl]benzamide] | 0.74 | 2780
15 | COc1cc(C(=O)Nc2cc(C(F)(F)F)ccn2)c(F)cc1-c1nc([C@@H]2CC[C@H]3CCC(=O)N3C2)n2c(Cl)cnc(N)c12 [Example 132, 4-{8-amino-5-chloro-3-[(6R,8aS)-3-oxooctahydroindolizin-6-yl]imidazo[1,5-a]pyrazin-1-yl}-2-fluoro-5-methoxy-N-[4-(trifluoromethyl)pyridin-2-yl]benzamide] | 1.2 | 1490

Stronger by IC50 [1], values ahead:

Row | IC50 [1] [nM] | IC50 (HeLa cells) [nM] | Compound
16 | 0.67 | 1690 | CCOc1cc(C(=O)Nc2cc(C(F)(F)F)n(C)n2)c(F)cc1-c1nc([C@@H]2CC[C@H]3CCC(=O)N3C2)n2c(Cl)cnc(N)c12 [Example 115, 4-(8-amino-5-chloro-3-((6R,8aS)-3-oxooctahydroindolizin-6-yl)imidazo[1,5-a]pyrazin-1-yl)-5-ethoxy-2-fluoro-N-(1-methyl-5-(trifluoromethyl)-1H-pyrazol-3-yl)benzamide]
17 | 0.58 | 832 | Nc1nccn2c([C@@H]3CC[C@H]4CCC(=O)N4C3)nc(-c3ccc(C(=O)Nc4cc(C(F)(F)F)ccn4)cc3O)c12 [Example 118, 4-{8-amino-3-[(6R,8aS)-3-oxooctahydroindolizin-6-yl]imidazo[1,5-a]pyrazin-1-yl}-3-hydroxy-N-[4-(trifluoromethyl)pyridin-2-yl]benzamide]
18 | 0.57 | 415 | Nc1nccn2c([C@@H]3CC[C@H]4CCC(=O)N4C3)nc(-c3ccc(C(=O)Nc4cc(C(F)(F)F)ccn4)cc3Cl)c12 [Example 112, 4-{8-amino-3-[(6R,8aS)-3-oxooctahydroindolizin-6-yl]imidazo[1,5-a]pyrazin-1-yl}-3-chloro-N-[4-(trifluoromethyl)pyridin-2-yl]benzamide]
19 | 0.28 | 1600 | COc1cc(C(=O)Nc2cc(C(F)(F)F)ccn2)cc(F)c1-c1nc([C@@H]2CC[C@H]3CCC(=O)N3C2)n2ccnc(N)c12 [Example 134, 4-{8-amino-3-[(6R,8aS)-3-oxooctahydroindolizin-6-yl]imidazo[1,5-a]pyrazin-1-yl}-3-fluoro-5-methoxy-N-[4-(trifluoromethyl)pyridin-2-yl]benzamide]
20 | 0.27 | 1160 | CCOc1cc(C(=O)Nc2cc(C(F)(F)F)ccn2)ccc1-c1nc([C@@H]2CC[C@H]3CCC(=O)N3C2)n2c(Cl)cnc(N)c12 [Example 128, 4-{8-amino-5-chloro-3-[(6R,8aS)-3-oxooctahydroindolizin-6-yl]imidazo[1,5-a]pyrazin-1-yl}-3-ethoxy-N-[4-(trifluoromethyl)pyridin-2-yl]benzamide]
21 | 0.26 | 206 | Nc1nccn2c([C@H]3CN4C(=O)CC[C@@H]4CO3)nc(-c3ccc(C(=O)Nc4cc(C(F)(F)F)ccn4)cc3)c12 [Example 107, 4-{8-amino-3-[(3R,8aR)-6-oxohexahydro-1H-pyrrolo[2,1-c][1,4]oxazin-3-yl]imidazo[1,5-a]pyrazin-1-yl}-N-[4-(trifluoromethyl)pyridin-2-yl]benzamide]
22 | 0.23 | 2150 | CCOc1cc(C(=O)Nc2cc(C(F)(F)F)n(C)n2)ccc1-c1nc([C@@H]2CC[C@H]3CCC(=O)N3C2)n2c(Cl)cnc(N)c12 [Example 135, 4-{8-amino-5-chloro-3-[(6R,8aS)-3-oxooctahydroindolizin-6-yl]imidazo[1,5-a]pyrazin-1-yl}-3-ethoxy-N-[1-methyl-5-(trifluoromethyl)-1H-pyrazol-3-yl]benzamide]
23 | 0.22 | 2880 | Nc1nccn2c([C@@H]3CC[C@H]4CN(CC(=O)O)CC(=O)N4C3)nc(-c3ccc(C(=O)Nc4cc(C(F)(F)F)ccn4)cc3)c12 [Example 108, {(7R,9aS)-7-[8-amino-1-(4-{[4-(trifluoromethyl)pyridin-2-yl]carbamoyl}phenyl)imidazo[1,5-a]pyrazin-3-yl]-4-oxooctahydro-2H-pyrido[1,2-a]pyrazin-2-yl}acetic acid]
